What follows are compounds tested against T1, fatty acid cyclooxygenase (Homo sapiens, UniProt P23219) (assay: Fatty Acid Cyclooxygenase (FCO) Assay, inhibition of PGE2 formation by purified human platelet enzyme). Settings: human platelet microsomal enzyme, pH 8.0, 37° C.
T1 construct: The solubilized fatty acid cyclooxygenase was applied to a 440 ml electrofocusing column; from tissue; host or cells: human platelets: microsomes solubilized with Triton X-100, purified by electrofocusing and G-200 Sephadex
T1 sequence (P23219 24-599): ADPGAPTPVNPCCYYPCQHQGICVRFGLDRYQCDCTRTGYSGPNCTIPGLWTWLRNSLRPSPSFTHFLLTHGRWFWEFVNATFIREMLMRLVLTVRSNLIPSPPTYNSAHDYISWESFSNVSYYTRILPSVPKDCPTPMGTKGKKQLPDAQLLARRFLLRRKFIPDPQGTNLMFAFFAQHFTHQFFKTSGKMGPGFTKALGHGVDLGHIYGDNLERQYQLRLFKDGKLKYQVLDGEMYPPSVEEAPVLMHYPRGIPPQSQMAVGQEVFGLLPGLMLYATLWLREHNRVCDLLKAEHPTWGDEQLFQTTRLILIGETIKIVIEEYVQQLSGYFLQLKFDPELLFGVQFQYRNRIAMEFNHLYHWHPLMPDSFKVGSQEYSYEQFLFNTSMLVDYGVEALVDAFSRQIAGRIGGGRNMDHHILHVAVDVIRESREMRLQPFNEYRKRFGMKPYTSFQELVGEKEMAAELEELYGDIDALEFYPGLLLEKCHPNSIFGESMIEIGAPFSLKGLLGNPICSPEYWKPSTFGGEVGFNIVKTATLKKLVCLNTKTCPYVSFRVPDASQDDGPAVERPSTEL
Assay type: biochemical
Procedure: Fatty Acid Cyclooxygenase (FCO) Assay
Microsomes were prepared from 185 bags of human platelets (each bag containing the platelets from one pint of blood prepared using differential centrifugation procedures). The platelets from approximately 60 bags were prepared at one time. Platelet-rich plasma (500 g) was centrifuged at 10,000×g for 20 minutes, and the platelet pellet was suspended in 100 ml of 0.1M potassium phosphate buffer, pH 8.0, with a Teflon glass homogenizer and sonicated for 5.0 minutes with a Bronson Sonifier (Model 350) in a rosette flask cooled in ice water. Disrupted platelets were centrifuged 15 minutes at 10,000× g. The supernatant was centrifuged at 100,000× g for 90 minutes and the microsomal pellets were homogenized in 25 ml of 20% sucrose containing 1.0% Triton X-100 detergent. After 30 minutes at 4° C., the solubilized microsomes were centrifuged at 100,000× g for 60 minutes. The yellow supernatant was removed and stored at -70 ° C.
The solubilized fatty acid cyclooxygenase was applied to a 440 ml electrofocusing column (LKB-8012) containing 1% phisolytes (Brinkman Instruments, Westburgh, NY), pH 2-11, with the cathode at the top of the column. The enzyme was layered onto the column at the appropriate time so that its sucrose concentration was equal to that of the column gradient. This was accomplished by checking the gradient concentration periodically with a sucrose hand refractometer. Electrofocusing was carried out for 16 hours with an initial voltage of 400 V and a final voltage of 900-1,000 volts. Fractions were collected (20 ml) and assayed for PGE2 formation. Active peak fractions were pooled and concentrated by ultrafiltration (XM 100A) to a volume of 3-5 ml.
Active fractions from electrofocusing were applied to a G-200 Sephadex column (2 cm×46 cm) and eluted with 10 mM potassium phosphate buffer, pH 7.0, in 5 ml fractions. After assay, active fractions were poored and concentrated to 1.0 ml by ultrafiltration (XM 100A), and kept frozen at -70° C.
Enzyme activity was determined by assaying for PGE2 formation by preincubating the enzyme with 10 mmol/l imidazole phosphate buffer, pH 8.0, 2 mmol/l epinephrine, 2 mmol/l methemoglobin, and the test compound (30 μg/ml) in a total volume of 0.2 ml for one minute at 37° C. After preincubation, 5 mmol/l ^14 C-arachidonic acid were added and the mixture was incubated an additional 0.5 minutes at 37° C. The enzyme reaction was stopped by the addition of 2 μl of indomethacin (2 mg/ml) in alcohol.
The reaction mixture was spotted (50 μl) on a silica gel (LQ6D) plate and subjected to TLC. The solvent system consisted of chloroform-methanol-glacial acetic acid (90:5:5, v/v/v) and the relative mobilities were PGF2α =0.235, and PGE2 =0.47. The silica gel on the plate was scraped in 1 cm sections, suspended in 5 ml of the scintillation fluid [5.88 g of 2,5-diphenyloxazole and 118 mg of 1,4 -bis(5-phenyloxazol-2-yl)benzene] dissolved in 650 ml of toluene and 350 ml of Triton X-100) and the radioactivity was determined in an Isocap/300 liquid scintillation counter (Searle Analytic, Inc., Southfield, Mich.). Another 50 μl of the mixture was added to 10 ml of the Triton X-100 based scintillation fluid, and the radioactivity was determined so that the amount of radioactivity recovery from the TLC plate could be ascertained. PGE2 formation for each test compound was determined as a percent of control experiments wherein no test compound was added. Data is expressed in Table I either as the percent inhibition of formation of PGE2 at a test compound concentration of 30 μ g/ml, or as an IC50 for inhibition of PGE2 formation.
With `CCCc1c(O)ccc(C(=O)c2ccccc2O)c1O` [Example 4, (2,4-Dihydroxy-3-propylphenyl)(2hydroxyphenyl)methanone] the IC50 was 1.1 µM.
In the case of `CCCc1c(OCCCCC#N)ccc(C(=O)c2ccccc2O)c1O` [Example 11, 5-[3-Hydroxy-4-(2-hydroxybenzoyl)-2-propylphenoxy]pentanenitrile], the IC50 is reported as 84.9 µM.
With `CCCc1c(OCCCCCCc2nnn[nH]2)ccc(C(=O)c2ccccc2O)c1O` [Example 25, (2-Hydroxyphenyl)[2-hydroxy-3-propyl-4-([6-(1H-tetrazol-5-yl)hexyl]oxy)phenyl]methanone] the IC50 was 12.7 µM.
Work on `CCCc1c(OCCCCCCCCc2nnn[nH]2)ccc(C(=O)c2ccccc2O)c1O` [Example 28, (2-Hydroxyphenyl)[2-hydroxy-3-propyl-4-([8-(1H-tetrazol-5-yl)octyl]oxy)phenyl]methanone] yielded an IC50 of 12.2 µM.
`CCCc1c(OCCCCC(=O)O)ccc(C(=O)c2ccccc2O)c1O` [Example 30, 5-[3-Hydroxy-4-(2-hydroxybenzoyl)-2-propylphenoxy]pentanoic acid] was tested, and the IC50 was 121 µM.

Same assay, conditions: percent inhibition at 30 μg/ml
`COc1ccccc1C(=O)c1ccc(OC)c(C)c1O` [Example 9, (2-hydroxy-4-methoxy-3-methylphenyl)(2-methoxyphenyl)methanone] was tested, and the inhibition at 30 µg/mL was 35%.
With `CCCc1c(OCCCCc2nnn[nH]2)ccc(C(=O)c2ccccc2OC)c1O` [Example 23, (2-Hydroxy-3-propyl-4-[4-(1H-tetrazol-5-yl)butoxy]phenyl)(2-methoxyphenyl)methanone] the inhibition at 30 µg/mL was 17%.
Work on `CCCc1c(OCCCCc2nnn[nH]2)ccc(C(=O)c2ccccc2O)c1O` [Example 26, (2-Hydroxyphenyl)(2-hydroxy-3-propyl-4[4-(1H-tetrazol-5-yl)butoxy]phenyl)methanone] yielded an inhibition at 30 µg/mL of 44%.

Reference: patent publication US4801616A, “Diphenylmethanone compounds and anti-inflammatory use thereof” (Eli Lilly and Company, priority 1986, dated 1989)
